Experimental data published in PubChem BioAssay AID2060347 (Molecular Pharmacology Branch, DTP, NCI, 2025).

Test system: 817829-284-R-J1-PDC spheroids with HUVEC/MSC, viability
Assay: Anticancer human tumor 817829-284-R-J1-PDC patient-derived colon adenocarcinoma cell line growth inhibition [TAK]
Details: for IC50: curve of first compound; for viability, T/C: stronger effect = lower value
Source text: Combinatorial screen of targeted agents with TAK-243 and ipatasertib in multi-cell type tumor spheroids
A high-throughput screen of multi-cell type tumor spheroids was designed to identify active combinations of targeted small molecules and TAK-243 or ipatasertib. Complex spheroids include a stromal component modeled by human endothelial cells (HUVEC) and fibroblasts modeled by human mesenchymal stem cells (MSCs). The concentration ranges selected for each drug and investigational agent were based upon clinically achievable concentrations if the clinical Cmax of the agent was known.
Compounds. The drugs and investigational agents: TAK-243 (785004), ipatasertib (767898), everolimus (733504), selumetinib (741078), bortezomib (756655), trametinib (758246), ixazomib (758254), vemurafenib (761431), dabrafenib (764134), sapanisertib (764658), alpelisib (765974), and copanlisib (816437), were obtained from the National Cancer Institute (NCI) Developmental Therapeutics Program Chemical Repository. The FDA-approved anticancer drug set is available from the NCI Developmental Therapeutics Program. […] The stock solutions were prepared in dimethyl sulfoxide (DMSO, Sigma-Aldrich, St. Louis, MO, cat. D2650) at 800-fold the tested concentration and stored at -70 degrees C prior to their use. All drugs and investigational agents were tested over a range starting from a high concentration at or near the clinical Cmax and decreasing in half-log increments. If the clinical Cmax for an agent had not been determined, the highest concentration tested was 10 microM.
NCI60 Cell Culture. NCI60 cell lines were obtained from the NCI Developmental Therapeutics Program Tumor Repository. For each lot of cells, the Repository performed Applied Biosystems AmpFLSTR Identifiler testing with PCR amplification to confirm consistency with the published Identifier STR profile for each cell line. Cells were kept in continuous culture for no more than 20 passages. The optimal seeding densities for each of the cell lines at each time point assessed were determined prior to performing the concentration response studies. Briefly, the NCI60 human tumor lines were grown as monolayers in RPMI 1640 medium supplemented with 10% FBS and 2 mmol/L L-glutamine.
An additional 2 lines were from the NCI60 cell line panel including melanomas, MALME-3M and SK-MEL-2. Pooled donor human umbilical vein endothelial cells (HUVEC, Lonza, cat. CC-2519) and human mesenchymal stem cells (hMSC, Lonza, cat. PT-2501) were purchased from Lonza (Walkersville, MD).
PDMR cell lines were grown in complete medium (DC medium): Dulbecco's modified Eagle's medium (DMEM)/F12 supplemented with 5% fetal bovine serum (FBS), 2 mM L-glutamine, 100 U/mL penicillin and 100 µg/ml streptomycin, 0.4 µg/ml hydrocortisone, 10 ng/ml epidermal growth factor (EGF) recombinant human protein, 24 µg/mL adenine, and 0.1 mg/mL primocin. During culture from frozen stock vials, PDMR cells were cultured in the same medium containing 10 µM Y-27632 (see Table 3). The PDCs were cultured in complete DMEM/F12 media without 10 microM Y-27632 dihydrochloride for at least two passages prior to the screen. The pooled donor HUVEC and hMSC were cultured in endothelial cell growth medium 2 (PromoCell, Heidelberg, Germany, cat. C-22011) and mesenchymal stem cell growth medium 2 (PromoCell, cat. C-28009), respectively. For all experiments, HUVEC and hMSC were used at passages </=5.
For the pre-screen, cell seeding densities were determined from a titration spanning the range from 5,000 to 313 cells per well. The mct-spheroids including 60% malignant cells, 25% HUVEC and 15% MSC dispensed as a mixture into U-bottom Ultra-Low Attachment 384-well plates (Corning, NY)
High-throughput Drug Combination Screening.
Prior to their inoculation into 384-well plates, malignant cells, HUVEC, and hMSC were removed from T flasks using TrypLE express (Thermo Fisher Scientific, cat. 12605036) and harvested by centrifugation for 5 min at 233 x g. […]

[1] = second compound 0.3 µM, first compound 0.316 µM
[2] = second compound 0.3 µM, first compound 1 µM
[3] = second compound 0.949 µM, first compound 0.316 µM
[4] = second compound 0.949 µM, first compound 1 µM
[5] = second compound 3 µM, first compound 0.316 µM
[6] = second compound 3 µM, first compound 1 µM
[7] = second compound 9.49 µM, first compound 0.316 µM
[8] = second compound 9.49 µM, first compound 1 µM
[9] = second compound 30 µM, first compound 0.316 µM
[10] = second compound 30 µM, first compound 1 µM

## CCCS(=O)(=O)Nc1ccc(F)c(C(=O)c2c[nH]c3ncc(-c4ccc(Cl)cc4)cc23)c1F + CC(C)NCC(C(=O)N1CCN(c2ncnc3c2C(C)CC3O)CC1)c1ccc(Cl)cc1
Second compound 0.3 µM
  IC50: 1900 nM
Second compound 0.949 µM
  IC50: < 316 nM
Second compound 3 µM
  IC50: < 316 nM
Second compound 9.49 µM
  IC50: < 316 nM
Second compound 30 µM
  IC50: < 316 nM
[1]
  viability, T/C: 78.3%
[2]
  viability, T/C: 66.9%
Second compound 0.3 µM, first compound 3.16 µM
  viability, T/C: 38%
Second compound 0.3 µM, first compound 10 µM
  viability, T/C: 12.7%
Second compound 0.3 µM, first compound 31.6 µM
  viability, T/C: 20%
Second compound 0.3 µM, first compound 100 µM
  viability, T/C: 46.3%
[3]
  viability, T/C: 29.6%
[4]
  viability, T/C: 26.4%
Second compound 0.949 µM, first compound 3.16 µM
  viability, T/C: 20.5%
Second compound 0.949 µM, first compound 10 µM
  viability, T/C: 10.8%
Second compound 0.949 µM, first compound 31.6 µM
  viability, T/C: 5.67%
Second compound 0.949 µM, first compound 100 µM
  viability, T/C: 17.3%
[5]
  viability, T/C: 18.5%
[6]
  viability, T/C: 14.3%
Second compound 3 µM, first compound 3.16 µM
  viability, T/C: 11.6%
Second compound 3 µM, first compound 10 µM
  viability, T/C: 4.96%
Second compound 3 µM, first compound 31.6 µM
  viability, T/C: 1.71%
Second compound 3 µM, first compound 100 µM
  viability, T/C: 12.3%
[7]
  viability, T/C: 9.5%
[8]
  viability, T/C: 7.83%
Second compound 9.49 µM, first compound 3.16 µM
  viability, T/C: 7.41%
Second compound 9.49 µM, first compound 10 µM
  viability, T/C: 2.4%
Second compound 9.49 µM, first compound 31.6 µM
  viability, T/C: 0.86%
Second compound 9.49 µM, first compound 100 µM
  viability, T/C: 7.59%
[9]
  viability, T/C: 5.18%
[10]
  viability, T/C: 5.41%
Second compound 30 µM, first compound 3.16 µM
  viability, T/C: 2.16%
Second compound 30 µM, first compound 10 µM
  viability, T/C: 0.51%
Second compound 30 µM, first compound 31.6 µM
  viability, T/C: 0.2%
Second compound 30 µM, first compound 100 µM
  viability, T/C: 1.89%

## COc1c(OCCCN2CCOCC2)ccc2c3n(c(=NC(=O)c4cnc(N)nc4)nc12)CCN3 + CC(C)NCC(C(=O)N1CCN(c2ncnc3c2C(C)CC3O)CC1)c1ccc(Cl)cc1
Second compound 0.3 µM
  IC50: 8.27 nM
Second compound 0.949 µM
  IC50: < 3.16 nM
Second compound 3 µM
  IC50: < 3.16 nM
Second compound 9.49 µM
  IC50: < 3.16 nM
Second compound 30 µM
  IC50: < 3.16 nM
Second compound 0.3 µM, first compound 0.00316 µM
  viability, T/C: 64.6%
Second compound 0.3 µM, first compound 0.01 µM
  viability, T/C: 47%
Second compound 0.3 µM, first compound 0.0316 µM
  viability, T/C: 23.3%
Second compound 0.3 µM, first compound 0.1 µM
  viability, T/C: 8.89%
[1]
  viability, T/C: 2.93%
[2]
  viability, T/C: 2.83%
Second compound 0.949 µM, first compound 0.00316 µM
  viability, T/C: 20.2%
Second compound 0.949 µM, first compound 0.01 µM
  viability, T/C: 10.4%
Second compound 0.949 µM, first compound 0.0316 µM
  viability, T/C: 8.85%
Second compound 0.949 µM, first compound 0.1 µM
  viability, T/C: 4.57%
[3]
  viability, T/C: 1.95%
[4]
  viability, T/C: 1.97%
Second compound 3 µM, first compound 0.00316 µM
  viability, T/C: 7.34%
Second compound 3 µM, first compound 0.01 µM
  viability, T/C: 4.51%
Second compound 3 µM, first compound 0.0316 µM
  viability, T/C: 3.03%
Second compound 3 µM, first compound 0.1 µM
  viability, T/C: 2.24%
[5]
  viability, T/C: 1.67%
[6]
  viability, T/C: 1.29%
Second compound 9.49 µM, first compound 0.00316 µM
  viability, T/C: 5.41%
Second compound 9.49 µM, first compound 0.01 µM
  viability, T/C: 3.12%
Second compound 9.49 µM, first compound 0.0316 µM
  viability, T/C: 2.03%
Second compound 9.49 µM, first compound 0.1 µM
  viability, T/C: 2.04%
[7]
  viability, T/C: 1.13%
[8]
  viability, T/C: 1.28%
Second compound 30 µM, first compound 0.00316 µM
  viability, T/C: 3.31%
Second compound 30 µM, first compound 0.01 µM
  viability, T/C: 1.8%
Second compound 30 µM, first compound 0.0316 µM
  viability, T/C: 1.37%
Second compound 30 µM, first compound 0.1 µM
  viability, T/C: 1.05%
[9]
  viability, T/C: 0.7%
[10]
  viability, T/C: 0.47%

## CC(=O)Nc1cccc(-n2c(=O)n(C3CC3)c(=O)c3c(Nc4ccc(I)cc4F)n(C)c(=O)c(C)c32)c1 + CC(C)NCC(C(=O)N1CCN(c2ncnc3c2C(C)CC3O)CC1)c1ccc(Cl)cc1
Second compound 0.3 µM
  IC50: 0.154 nM
Second compound 0.949 µM
  IC50: < 0.0949 nM
Second compound 3 µM
  IC50: < 0.0949 nM
Second compound 9.49 µM
  IC50: < 0.0949 nM
Second compound 30 µM
  IC50: < 0.0949 nM
Second compound 0.3 µM, first compound 94.9 pM
  viability, T/C: 60%
Second compound 0.3 µM, first compound 0.0003 µM
  viability, T/C: 36.2%
Second compound 0.3 µM, first compound 0.000949 µM
  viability, T/C: 22.1%
Second compound 0.3 µM, first compound 0.003 µM
  viability, T/C: 24.3%
Second compound 0.3 µM, first compound 0.00949 µM
  viability, T/C: 11.9%
Second compound 0.3 µM, first compound 0.03 µM
  viability, T/C: 7.59%
Second compound 0.949 µM, first compound 94.9 pM
  viability, T/C: 19.3%
Second compound 0.949 µM, first compound 0.0003 µM
  viability, T/C: 19.1%
Second compound 0.949 µM, first compound 0.000949 µM
  viability, T/C: 13.8%
Second compound 0.949 µM, first compound 0.003 µM
  viability, T/C: 12.8%
Second compound 0.949 µM, first compound 0.00949 µM
  viability, T/C: 11.4%
Second compound 0.949 µM, first compound 0.03 µM
  viability, T/C: 10.6%
Second compound 3 µM, first compound 94.9 pM
  viability, T/C: 9.84%
Second compound 3 µM, first compound 0.0003 µM
  viability, T/C: 8.37%
Second compound 3 µM, first compound 0.000949 µM
  viability, T/C: 8.93%
Second compound 3 µM, first compound 0.003 µM
  viability, T/C: 8.79%
Second compound 3 µM, first compound 0.00949 µM
  viability, T/C: 7.98%
Second compound 3 µM, first compound 0.03 µM
  viability, T/C: 7.61%
Second compound 9.49 µM, first compound 94.9 pM
  viability, T/C: 6.42%
Second compound 9.49 µM, first compound 0.0003 µM
  viability, T/C: 5.85%
Second compound 9.49 µM, first compound 0.000949 µM
  viability, T/C: 5.02%
Second compound 9.49 µM, first compound 0.003 µM
  viability, T/C: 5.15%
Second compound 9.49 µM, first compound 0.00949 µM
  viability, T/C: 5.13%
Second compound 9.49 µM, first compound 0.03 µM
  viability, T/C: 4.15%
Second compound 30 µM, first compound 94.9 pM
  viability, T/C: 4.66%
Second compound 30 µM, first compound 0.0003 µM
  viability, T/C: 4.56%
Second compound 30 µM, first compound 0.000949 µM
  viability, T/C: 3.15%
Second compound 30 µM, first compound 0.003 µM
  viability, T/C: 3.45%
Second compound 30 µM, first compound 0.00949 µM
  viability, T/C: 2.76%
Second compound 30 µM, first compound 0.03 µM
  viability, T/C: 2.65%
